Experiments:
B2 bradykinin receptor = target: T1, B2 bradykinin receptor (Homo sapiens, UniProt P30411); format: cell membranes, Membrane; details: chem-1; note: in other assays of this panel Not Active means under 50% inhibition at 10 µM
T1 sequence (P30411 whole entry): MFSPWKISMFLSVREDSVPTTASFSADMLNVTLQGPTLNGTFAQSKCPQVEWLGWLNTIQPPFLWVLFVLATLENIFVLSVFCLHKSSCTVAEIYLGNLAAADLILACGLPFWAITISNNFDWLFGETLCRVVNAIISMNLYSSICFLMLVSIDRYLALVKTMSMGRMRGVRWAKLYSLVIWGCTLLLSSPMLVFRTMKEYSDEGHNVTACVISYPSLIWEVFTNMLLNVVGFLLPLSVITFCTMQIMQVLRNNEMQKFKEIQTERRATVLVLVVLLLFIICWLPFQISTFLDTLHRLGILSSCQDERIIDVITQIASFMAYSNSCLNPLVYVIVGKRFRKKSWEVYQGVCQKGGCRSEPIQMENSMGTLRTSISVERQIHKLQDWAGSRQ

[1] = target: T2, Alpha-1B adrenergic receptor (Rattus norvegicus, UniProt P15823); experiment: DRUGMATRIX: Alpha-1B adrenergic receptor radioligand binding (ligand: prazosin); format: cell membranes, Wistar, Liver, Membrane; details: Not Active = under 50% inhibition at 10 µM; for Ki: read-out: Ki
T2 sequence (P15823 whole entry): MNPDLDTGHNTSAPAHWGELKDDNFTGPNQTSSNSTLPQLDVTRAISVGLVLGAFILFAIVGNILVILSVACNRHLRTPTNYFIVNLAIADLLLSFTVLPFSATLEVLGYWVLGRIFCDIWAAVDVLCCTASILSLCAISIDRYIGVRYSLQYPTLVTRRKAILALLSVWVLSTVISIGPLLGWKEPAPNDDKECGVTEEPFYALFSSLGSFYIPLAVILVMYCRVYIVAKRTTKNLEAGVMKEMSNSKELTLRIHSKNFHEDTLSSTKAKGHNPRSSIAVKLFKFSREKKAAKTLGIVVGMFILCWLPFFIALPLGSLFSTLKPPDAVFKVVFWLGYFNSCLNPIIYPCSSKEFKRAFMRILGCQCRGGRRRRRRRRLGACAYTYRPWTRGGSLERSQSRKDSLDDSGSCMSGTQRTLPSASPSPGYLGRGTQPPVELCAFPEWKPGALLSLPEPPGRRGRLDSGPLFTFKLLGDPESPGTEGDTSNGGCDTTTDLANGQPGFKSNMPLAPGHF

[2] = target: T3, Alpha-1D adrenergic receptor (Homo sapiens, UniProt P25100); format: cell membranes, HEK293, Membrane; details: for Ki: read-out: Ki; for all read-outs here: in other assays of this panel Not Active means under 50% inhibition at 10 µM
T3 sequence (P25100 whole entry): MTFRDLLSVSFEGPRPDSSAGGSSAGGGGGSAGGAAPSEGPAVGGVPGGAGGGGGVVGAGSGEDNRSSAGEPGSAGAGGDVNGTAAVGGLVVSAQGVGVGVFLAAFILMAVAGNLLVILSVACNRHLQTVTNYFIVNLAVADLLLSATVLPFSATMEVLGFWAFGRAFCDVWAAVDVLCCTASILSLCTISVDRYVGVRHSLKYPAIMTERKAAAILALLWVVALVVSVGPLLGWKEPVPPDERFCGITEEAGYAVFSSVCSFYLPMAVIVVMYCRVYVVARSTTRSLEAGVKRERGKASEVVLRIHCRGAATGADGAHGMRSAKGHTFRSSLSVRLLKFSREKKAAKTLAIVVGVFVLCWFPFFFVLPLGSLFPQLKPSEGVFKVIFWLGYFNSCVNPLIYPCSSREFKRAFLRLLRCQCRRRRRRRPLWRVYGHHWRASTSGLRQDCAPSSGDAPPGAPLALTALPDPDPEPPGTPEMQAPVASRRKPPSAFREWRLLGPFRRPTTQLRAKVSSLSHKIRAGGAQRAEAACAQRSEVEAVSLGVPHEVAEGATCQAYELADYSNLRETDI

Neutrophil elastase = target: T4, Neutrophil elastase (Homo sapiens, UniProt P08246); format: tissue-based;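 note: inhibition of neutrophil elastase enzyme activity, measured with a p-nitroanilide-linked peptide substrate; in other assays of this panel Not Active means under 50% inhibition at 10 µM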
T4 sequence (P08246 whole entry): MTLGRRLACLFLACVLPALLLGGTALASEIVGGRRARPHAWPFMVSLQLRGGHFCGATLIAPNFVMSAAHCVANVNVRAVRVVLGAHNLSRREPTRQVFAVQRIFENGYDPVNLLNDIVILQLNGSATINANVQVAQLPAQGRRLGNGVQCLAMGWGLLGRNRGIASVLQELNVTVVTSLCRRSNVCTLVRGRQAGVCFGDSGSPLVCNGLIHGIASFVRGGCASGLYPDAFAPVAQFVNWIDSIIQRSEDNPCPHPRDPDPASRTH

[3] = DRUGMATRIX: Atrial Natriuretic Factor (ANF) radioligand binding (ligand: [125I] ANF (rat)); format: cell membranes, Cavia porcellus, Dunkin-Hartley, Adrenal gland, Membrane; details: Not Active = under 50% inhibition at 10 µM
[4] = target: T5, Alpha-2C adrenergic receptor (Homo sapiens, UniProt P18825); experiment: DRUGMATRIX: Adrenergic Alpha-2C radioligand binding (ligand: [3H] MK-912); format: cell membranes, Sf9, Membrane; details: sf9
T5 sequence (P18825 whole entry): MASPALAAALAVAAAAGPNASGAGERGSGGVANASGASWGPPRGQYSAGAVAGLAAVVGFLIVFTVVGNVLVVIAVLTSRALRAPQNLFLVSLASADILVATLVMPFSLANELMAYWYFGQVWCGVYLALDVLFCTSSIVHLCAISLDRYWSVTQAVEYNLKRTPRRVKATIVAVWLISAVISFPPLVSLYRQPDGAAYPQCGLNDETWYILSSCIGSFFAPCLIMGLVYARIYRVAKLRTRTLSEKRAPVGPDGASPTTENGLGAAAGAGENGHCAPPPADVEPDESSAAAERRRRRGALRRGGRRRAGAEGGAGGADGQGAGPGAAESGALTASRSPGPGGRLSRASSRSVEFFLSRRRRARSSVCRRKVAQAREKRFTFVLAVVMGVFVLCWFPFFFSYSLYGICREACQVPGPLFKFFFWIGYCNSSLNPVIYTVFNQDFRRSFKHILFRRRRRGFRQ

Substance-P receptor = Substance-P receptor (Homo sapiens, UniProt P25103); format: cell membranes, Membrane; details: cho; note: in other assays of this panel Not Active means under 50% inhibition at 10 µM
Sequence of Substance-P receptor (P25103 whole entry): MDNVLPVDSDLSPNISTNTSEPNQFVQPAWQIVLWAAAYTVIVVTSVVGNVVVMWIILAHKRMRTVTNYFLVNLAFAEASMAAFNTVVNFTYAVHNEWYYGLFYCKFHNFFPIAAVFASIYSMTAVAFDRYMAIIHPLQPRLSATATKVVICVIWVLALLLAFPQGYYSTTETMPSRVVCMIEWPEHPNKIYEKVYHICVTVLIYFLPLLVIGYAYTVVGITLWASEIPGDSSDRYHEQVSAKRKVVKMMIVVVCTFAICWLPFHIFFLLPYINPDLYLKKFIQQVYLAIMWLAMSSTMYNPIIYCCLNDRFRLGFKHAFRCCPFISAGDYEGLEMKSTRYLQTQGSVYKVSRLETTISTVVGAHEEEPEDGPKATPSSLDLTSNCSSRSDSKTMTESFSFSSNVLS

Structure (SMILES)	IC50 (B2 bradykinin receptor)	IC50 [1]	IC50 ([2]; hek293)	IC50 (Neutrophil elastase)	IC50 [3]	Ki [3]	IC50 [4]	IC50 (Substance-P receptor)	IC50 ([1]; read-out: IC50) [nM]	Ki [1] [nM]	IC50 ([2]; read-out: IC50) [nM]	Ki [2] [nM]
Nn1nnc2ccccc21	Not Active	Not Active	Not Active	Not Active	Not Active	Not Active	Not Active	Not Active				
CC[C@]1(O)CC[C@H]2[C@@H]3CCC4=CCCC[C@@H]4[C@H]3CC[C@@]21C	Not Active	Not Active	Not Active	Not Active	Not Active	Not Active	Not Active	Not Active				
N[C@@H](Cc1ccc(F)cc1)C(=O)O	Not Active	Not Active	Not Active	Not Active	Not Active	Not Active	Not Active	Not Active				
CCOC(=O)[C@H](CCc1ccccc1)N[C@@H](C)C(=O)N1Cc2ccccc2C[C@H]1C(=O)O	Not Active	Not Active	Not Active	Not Active	Not Active	Not Active	Not Active	Not Active				
O=C(c1ccccc1Cl)N1CCC(Cc2ccccc2)CC1	Not Active	Not Active	Not Active	Not Active	Not Active	Not Active	Not Active	Not Active				
CCOC(=O)[C@H](CCc1ccccc1)N[C@@H](C)C(=O)N1CCC[C@H]1C(=O)O	Not Active	Not Active	Not Active	Not Active	Not Active	Not Active	Not Active	Not Active				
Clc1cc2c(cc1Cl)Oc1cc(Cl)c(Cl)cc1O2 [2,3,7,8-TETRACHLORODIBENZO-P-DIOXIN]	Not Active	Not Active	Not Active	Not Active	Not Active	Not Active	Not Active	Not Active				
C=C1/C(=C\C=C2/CCC[C@]3(C)[C@@H]([C@H](C)CCCC(C)C)CC[C@@H]23)C[C@@H](O)C[C@@H]1O [ALFACALCIDOL]	Not Active	Not Active	Not Active	Not Active	Not Active	Not Active	Not Active	Not Active				
CCCCCC[C@H]1C(=O)O[C@H](C)[C@H](NC(=O)c2cccc(NC=O)c2O)C(=O)O[C@@H](C)[C@@H]1OC(=O)CC(C)C [ANTIMYCIN A]	Not Active	Not Active	Not Active	Not Active	Not Active	Not Active	Not Active	Not Active				
C[C@@H]1CC[C@H]2[C@@H](C)C(=O)O[C@@H]3O[C@@]4(C)CC[C@@H]1[C@]32OO4 [ARTEMISININ]	Not Active	Not Active	Not Active	Not Active	Not Active	Not Active	Not Active	Not Active				
CC(C)C[C@H]1C(=O)N2CCC[C@H]2[C@]2(O)O[C@](NC(=O)[C@@H]3C=C4c5cccc6[nH]c(Br)c(c56)C[C@H]4N(C)C3)(C(C)C)C(=O)N12 [BROMOCRIPTINE]	Not Active			Not Active	Not Active	Not Active		Not Active	3.55	1.96	30	15
CN1C[C@H](C(=O)N[C@]2(C)O[C@@]3(O)[C@@H]4CCCN4C(=O)[C@H](Cc4ccccc4)N3C2=O)C[C@@H]2c3cccc4[nH]cc(c34)C[C@H]21 [DIHYDROERGOTAMINE]	Not Active			Not Active	Not Active	Not Active		Not Active	8.09	4.48	29	14
N=C(N)N/N=C/c1c(Cl)cccc1Cl [GUANABENZ]	Not Active			Not Active	Not Active	Not Active		Not Active			472	232
